Where “and” joins values, the source holds several entries; their conditions need not be identical. Identical values can stand only once.
How the values were obtained:
Assay type in all cases: cell-based
PLB protein = assay: Western blot quantification of PLB protein content in myocytes infected with adenovirus transgenes; settings: normalized to a-actin, compared with adenovirus/SR control lacking the transgene
Excerpt: FIG. 6a is a Western blot analysis of myocytes containing the adenovirus transgenes expressing sense PLB (sPLB), antisense PLB (asPLB), E2A, R14E, S16N, and K3E/R14E against monoclonal PLB. FIG. 6b is a Western blot showing the results of cell infectivity by PLB, sPLB and K3E/R14E. FIG. 6c illustrates the Western blot analysis of PLB infectivity of So18 cells.
Additional Western blot analysis of myocytes containing the adenovirus transgenes expressing sense PLB (sPLB), antisense PLB (asPLB), E2A, R14E, S1.6N, and K3E/R14E against monoclonal PLB antibody (Affinity BioReagents) is shown in FIG. 6a. […] In contrast, asPLB and S16N results in 54% and 33% decrease in PLB protein content within the myocytes. The introduction of K3E/R14E transgene infection of myocytes leads to a formation of a distinct pattern of pentamer PLB. Multiple PLB bands appear in addition to PLB5 (the pentamer).

[1] = test system: isolated mouse cardiomyocytes; assay: Contraction cycle of isolated mouse cardiomyocytes with penetratin-PLB peptide; settings: 10 μM peptide; for Maximum Contract. / Minimum Contract.: arbitrary unit of length, single samples 1-7 and Mean; for Relax. Slope: control mean 0.9814
Excerpt: Cell level studies were done to evaluate the ability of two penetratin-based peptides, two mutant PLB-penetratin peptides, and two multiple antigen peptides (MAP) to strengthen the contraction cycle of isolated mouse cardiomyocytes. The two penetratin-based peptides include PLB-ANT (Seq. ID. No. 10) and TAT-PLB (Seq. ID. No. 11) each of which have a 20 residue portion of the PLB sequence attached to either the 5′ end of ANT (Seq. ID. No. 14) or the 3′ end of TAT (Seq. ID. No. 15). The two mutant PLB peptides, mutant PLB-ANT (Seq. ID. No. 12) and TAT-mutant PLB (Seq. ID No. 13), display a S16E mutation of the 20 residue PLB sequence. The multiple antigen peptides include MAP with 8 penetratin (ANT) domains and MAP with 4 penetratin domains and 4 PLB domains.
Each of the penetratin-PLB peptides were evaluated to measure their ability to strengthen the contraction cycle of isolated mouse cardiomyocytes, the idea being that the penetratin-PLB peptide would act as a dominant negative inhibitor of the PLE3-SERCA2a interaction.
Measurements were taken every 20 milliseconds, and the unit of length was arbitrary, but was generally on the order of one complete cell length. Percent contraction was calculated as (maximum length minus minimum length) divided by maximum length. A plot of time versus length generated a U-shaped curve from which the most linear segments were selected, with the left side of the “U” representing contraction and the right side representing relaxation.

SR Ca2+ transport = assay: Radioactive Ca2+ transport assay (SR Ca2+ transport); settings: adenoviral vector expressing contractilin, rat cardiomyocytes
Experimental: The amplified and purified hypervariable region RNA is then fused to a single cDNA (Seq. ID. No. 9) and subsequently cloned in frame into a plasmid vector, coding for a phage surface protein. Using standard phage display technique, phages which express the immune library of the chicken are selected by their positive response to the PLB peptide. After a series of enrichment for phages which specifically bind PLB, 20 clones are selected for ELISA. The resulting 5 best binders are then analyzed using a radioactive Ca^2+ transport assay. The two best activators of SR Ca^2+ transport are further analyzed. Both clones are found to dramatically stimulate the rate of Ca^2+ transport into the SR.

Molecule: E2A: adenoviral single point mutation of PLB, Seq. ID. No. 3 (MAKVQYLTRSAIRRASTIEMPQQARQKLQNLFINFCLILICLLLICIIVMLL; adenoviral vector; listed as Homo sapiens)
- increase in PLB protein level (PLB protein): 72%

Molecule: R14E: adenoviral single point mutation of PLB, Seq. ID. No. 4 (MEKVQYLTRSAIREASTIEMPQQARQKLQNLFINFCLILICLLLICIIVMLL; adenoviral vector; listed as Homo sapiens)
- increase in PLB protein level (PLB protein): 57%

Molecule: TAT-PLB: 20 residue portion of the PLB sequence attached to the 3′ end of TAT, Seq. ID. No. 11 (GGGGYGRKKRRQRRRMEKVQYLTRSAIRRASTIEM; listed as Homo sapiens)
- effect on myocyte contraction (overall) ([1]; T-test, no statistical difference): trend towards a larger, faster contraction
- Maximum Contract. [1]: 112.57 and 109.68 and 133.82 and 81.61 and 74.423 and 126.89 and 133.61
- Minimum Contract. [1]: 101.17 and 102.00 and 116.32 and 67.871 and 64.629 and 108.38 and 128.21
- Maximum Contract. ([1]; mean): 110.373
- Minimum Contract. ([1]; mean): 98.363
- Relax. Slope [1]: 0.9925 and 0.9790 and 0.9878 and 0.9697 and 0.9933 and 0.9939 and 0.9959
- Relax. Slope ([1]; mean): 0.9874

B1: contractilin: recombinant protein from chicken polyclonal PLB antibody hypervariable regions, expressed from adenoviral vector (Seq. ID. No. 9) (protein, listed as Homo sapiens)
chain: MHHHHHHVAQAALTHSSSVSANPGETVKITCSGGGNYAGSYYYGWFQQKSPGSAPVTVIYSNDQRPSNIPSRFSGSTSGSTSTLTITGVRAEDEAVYFCGSNSGTGYVGIFGAGTTLTVLGQSSRSSTVTLDESGGGLQTPGGALSLVCRASGFTFSRFHMMWVRQAPGKGLEWVAGIDDGGSFTLYGAAVKGRATILRDNGQSTVRLQLDNLRPEDTATYFCVKTKCGGNGWCGADRIDAWGHGTEVIVSSTSGQAGQYPYDVPDYAS
- cytoplasmic Ca2+ removal (SR Ca2+ transport): accelerates cytoplasmic Ca^2+ removal

Reference: patent US20090149412A1, “Method for Inhibition of Phospholamban Activity for the Treatment of Cardiac Disease and Heart Failure” (THE REGENTS OF THE UNIVERSITY OF CALIFORNIA, priority 1999, published 2009)
